One experiment relates to NCI-H716 cells. As to the kind of experiment: GLP-1 release into culture medium of NCI-H716 cells. In kind it is cell-based. The following applies: 50 μM, FIG. 5. On the procedure: NCI-H716 cells were cultured and treated with 50 μM hyocholic acid and hyocholic acid derivatives, and a reported TGR5 agonist INT-777, and the levels of GLP-1 in the cell culture medium were measured.

The next experiment relates to NCI-H716 and STC-1 cells. As to the kind of experiment: GLP-1 expression in enteroendocrine cell lines after 48 h bile acid treatment. Format: cell-based. The following applies: 50 μM, through the action of TGR5 and FXR, FIG. 6. On the procedure: NCI-H716 and STC-1 cells were treated with 50 μM hyocholic acid, hyodeoxycholic acid, taurohyodeoxycholic acid, glycohyodeoxycholic acid, taurohyocholic acid, glycohyocholic acid and 19 kinds of other bile acids for 48 hours. […] (a) GLP-1 transcription was measured using real-time PCR, see FIG. 6A. (b) GLP-1 secretion was measured using ELISA, see FIG. 6B. (c) NCI-H716 and STC-1 and TGR5 knockdown cells thereof were treated with 6 kinds of hyocholic acids for 24 h and intracellular GLP-1, p-CREB and total CREB were measured using western blotting. (d) FXR protein concentration in nuclear and cytoplasmic fractions ofNCI-H716 cells after 24 h treatment with 50 μM chenodeoxycholic acid or 5-cholic acid in the presence and absence of hyocholic acid. See FIG. 6E. * P<0.05, compared with the control.

Experiment [1] deals with fat-induced obesity mouse model. As to the kind of experiment: High-fat diet induced obesity mouse model, triglyceride after 8 weeks of gavage. Format: in vivo, mice. The following applies: for triglyceride levels versus simple high-fat diet group: 50 mg/kg/day by gavage with high-fat diet for 8 weeks; for liver triglyceride / serum triglyceride: after 8 weeks of intervention; for liver triglyceride: FIG. 2; for serum triglyceride: FIG. 3. On the procedure:
In the fat-induced obesity mouse model, hyocholic acid and hyodeoxycholic acid were administered by gavage at a dose of 50 mg/kg/day while feeding high-fat diet (HFD) for 8 weeks. […] The increase of hyocholic acid and hyodeoxycholic acid in mice can effectively improve the dyslipidemia in mice caused by high fat.

Turning to `CC[C@H]1[C@@H](O)[C@@H]2[C@H](C[C@H](O)[C@]3(C)[C@@H]([C@H](C)C[C@H](C)C(=O)O)CC[C@@H]23)[C@@]2(C)CC[C@@H](O)C[C@@H]12` [INT-777], in the experiment with NCI-H716 cells, the “release of GLP-1 (level in cell culture medium)” value (from here on “release”) is “effectively promote the release of GLP-1”.

For the compound `C[C@H](C[C@H](C)C(=O)O)[C@H]1CCC2C3C(CC[C@@]21C)[C@@]1(C)CC[C@@H](O)CC1[C@@H](O)[C@H]3O` (stereo partly drawn) [ZN-1-102-1, (S)-23-methyl hyocholic acid], the “release” value with NCI-H716 cells was “superior to hyocholic acid and the existing TGR5 agonist INT-777”.

Turning to `C[C@H](CCC(=O)NCC(=O)O)[C@H]1CC[C@H]2[C@@H]3[C@H](O)[C@H](O)[C@@H]4C[C@H](O)CC[C@]4(C)[C@H]3CC[C@]12C` [glycohyocholic acid], the “upregulating GLP-1 protein expression in enteroendocrine cell lines” value (“upregulating GLP-1 protein expression” below) in the experiment with NCI-H716 and STC-1 cells is “more effective than other bile acids”.

Regarding `CC(CCC(=O)NCC(=O)O)C1CCC2C3CC(O)C4CC(O)CCC4(C)C3CCC12C` (stereo not drawn) [glycohyodeoxycholic acid], in the experiment on NCI-H716 and STC-1 cells, the “upregulating GLP-1 protein expression” value is recorded as “more effective than other bile acids”.

For `C[C@H](CCC(=O)O)[C@H]1CC[C@H]2[C@@H]3[C@H](O)[C@H](O)[C@@H]4C[C@H](O)CC[C@]4(C)[C@H]3CC[C@]12C` [hyocholic acid], in experiment [1], the “triglyceride levels versus simple high-fat diet group” value is “significantly lower”, the liver triglyceride entry is “significant decrease” and the serum triglyceride result was “significant decrease”. For the same compound, the “upregulating GLP-1 protein expression” value with NCI-H716 and STC-1 cells was “more effective than other bile acids”. The “release” value with NCI-H716 cells was “effectively promote the release of GLP-1”.

Turning to `C[C@H](CCC(=O)O)[C@H]1CC[C@H]2[C@@H]3C[C@H](O)[C@@H]4C[C@H](O)CC[C@]4(C)[C@H]3CC[C@]12C` [hyodeoxycholic acid], in experiment [1], the “triglyceride levels versus simple high-fat diet group” value is given as “significantly lower”, the liver triglyceride result was “significant decrease” and the serum triglyceride result is “significant decrease”. In the experiment on NCI-H716 and STC-1 cells, the “upregulating GLP-1 protein expression” value is on record as “more effective than other bile acids”.

For `C[C@H](CCC(=O)NCCS(=O)(=O)O)[C@H]1CC[C@H]2[C@@H]3[C@H](O)[C@H](O)[C@@H]4C[C@H](O)CC[C@]4(C)[C@H]3CC[C@]12C.[Na]` [taurohyocholic acid], the “upregulating GLP-1 protein expression” value in the experiment on NCI-H716 and STC-1 cells is on record as “more effective than other bile acids”.

Consider `C[C@H](CCC(=O)NCCS(=O)(=O)[O-])[C@H]1CC[C@H]2[C@@H]3C[C@H](O)[C@@H]4C[C@H](O)CC[C@]4(C)[C@H]3CC[C@]12C.[Na+]` [taurohyodeoxycholic acid], for which, in the experiment on NCI-H716 and STC-1 cells, the “upregulating GLP-1 protein expression” value was “more effective than other bile acids”.

Source of the values: patent US12491190B2, “Bile acid derivative, composition and application thereof” (SHENZHEN YUNHE PHARMACEUTICAL TECHNOLOGY PARTNERSHIP …, priority 2019, dated 2025).
